Literature values in patent US20180042845A1, “PREPARATIONS OF CANNABIS EMULSIONS AND METHODS THEREOF” (ONE WORLD CANNABIS LTD., priority 2015, published 2018).

Columns and labels:
CB2 receptor = CB2 receptor (Homo sapiens, UniProt P34972)
CB2 receptor, sequence (P34972 whole entry): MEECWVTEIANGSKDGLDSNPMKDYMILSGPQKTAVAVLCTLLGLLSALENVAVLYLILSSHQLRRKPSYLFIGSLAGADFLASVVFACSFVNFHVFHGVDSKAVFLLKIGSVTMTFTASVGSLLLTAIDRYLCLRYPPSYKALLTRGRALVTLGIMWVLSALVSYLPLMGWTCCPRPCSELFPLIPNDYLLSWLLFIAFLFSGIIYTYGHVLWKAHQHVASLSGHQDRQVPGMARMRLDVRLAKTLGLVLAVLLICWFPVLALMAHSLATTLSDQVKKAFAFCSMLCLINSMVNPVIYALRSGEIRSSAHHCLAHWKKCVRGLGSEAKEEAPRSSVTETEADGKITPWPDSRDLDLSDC

Compound | Fraction of administered dose reaching systemic circulation (oral, first pass hepatic metabolism and high lipid solubility) | Fraction absorbed after a single oral dose (single dose) | Affinity for CB2 receptors (CB2 receptor)
CCCCCc1cc(O)c2c(c1)OC(C)(C)[C@@H]1CCC(C)=C[C@@H]21 [THC, Tetrahydrocannabinol] | 10-20% | 90-95% | 
C=C(C)[C@@H]1CCC(C)=C[C@H]1c1c(O)cc(CCCCC)cc1O [Cannabidiol] |  |  | very low affinity
